Source: patent US10106501B2, “Nuclear receptor modulators” (AbbVie Inc., priority 2015, dated 2018)

Biological target: T1, chimeric human RORγ-Gal4 receptor (Homo sapiens, UniProt P51449)
T1 sequence (P51449 269-508 limits assumed): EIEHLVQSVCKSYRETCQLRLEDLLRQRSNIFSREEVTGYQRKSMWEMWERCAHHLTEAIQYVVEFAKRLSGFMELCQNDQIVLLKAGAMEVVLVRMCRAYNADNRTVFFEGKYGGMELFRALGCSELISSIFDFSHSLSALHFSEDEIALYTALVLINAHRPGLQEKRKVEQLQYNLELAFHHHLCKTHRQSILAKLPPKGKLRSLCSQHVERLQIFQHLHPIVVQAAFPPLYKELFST
Assay: transient transactivation assay (RORγ-Gal4 luciferase reporter)
Format: cell-based
Settings: Cos-7 cells transfected with RORγ-Gal4 and 5Gal4 pGL3 TK Luc reporter; overnight incubation; T0901317 at 10^-5 M as reference; read-out: IC50

- IC50: 100 to 500 nM
Structure (SMILES): Cn1c(Cc2c(Cl)ccc(C(=O)N3CCN(C4CC(C(=O)O)C4)CC3)c2Cl)cc2ccc(C(F)(F)F)cc21 (stereo not shown) [O, 3-(4-(2,4-dichloro-3-((1-methyl-6-(trifluoromethyl)-1H-indol-2-yl)methyl)benzoyl)piperazin-1-yl)cyclobutanecarboxylic acid]
